Laboratory results taken from US6677302B2, “Compositions and methods for the treatment of viral disorders” (The Trustees of Boston University, priority 1996, dated 2004).
“Also recorded” adds a separate entry of the source.

Experiments:
[1] = test system: Human Neuroblastoma Cell Line, SK-N-MC; assay: Proliferation of neuroblastoma cells, 4 weeks continuous exposure; assay type: cell-based; details: no treatment 1 × 10^8
Protocol: Human neuroblastoma cell line SK-N-MC was studied under different conditions. In this case, the cells were grown for 4 weeks with continuous exposure to sodium butyrate or arginine butyrate, and the cell number was quantitated at the end of this time.

[2] = test system: EBV-TK mRNA in P3RH1 (EBV B-cell producer line); assay: EBV-TK mRNA induction in lymphoma cell lines; assay type: cell-based, human; details: 12 hours, 3 mM
Protocol: (§1) Because of arginine butyrate's ability to induce various genes, its ability to induce EBV-TK mRNA in human lymphoma cell lines was evaluated. FIG. 7 provides bar graphs of the basal levels of TK and the levels following 12 hours of incubation with 3 mM arginine butyrate in 3 lymphoma cell lines: X50-7 a latent large cell lymphoma (B cell); P3RH1 an EBV B-cell producer line derived from Burkitt's lymphoma; and Raji a non-producer line derived from a Burkitt's lymphoma. EBV-TK levels were not increased in the EBV non-producer cell line, Raji, which has a high basal level of TK, but were increased approximately 4 fold in an EBV producer cell line and 10 fold in a non-producer cell line.

[3] = test system: EBV-TK mRNA in Raji (non-producer line); assay: EBV-TK mRNA induction in lymphoma cell lines; assay type: cell-based, human; details: high basal level of TK, 12 hours, 3 mM
Protocol: as §1

[4] = Clinical toxicity in patients; assay type: in vivo, human; details: for grade 3 or 4 toxicities: patients treated up to 2,000 mg/kg/day
Protocol: Clinical experience with butyrates have been performed in children with acute myelogenous leukemia in Israel, and in children with neuroblastoma (K. Prasad, Life Sci. 27:1351-58, 1980). […] Eleven pediatric patients and twelve adults with β-hemoglobinopathies were treated with IV arginine butyrate at a starting dose of 500 mg/kg/day for 2-7 weeks. If no side effects were noted, the rate was increased by 250 mg/kg/day to a final rate of 1500 mg/kg/day in 4 patients, and 2000 mg/kg/day in 2 patients. […] This rise in BUN returned to normal within 12 hours of discontinuation of drug, and is thought to be secondary to effect of arginine upon ureagenesis. […] Peak serum levels of butyrate ranged between 0.04-0.05 mM, and butyrate was not detectable 15 minutes after infusion was discontinued. Plasma arginine levels were also rapidly cleared, with a T1/2 of 15 minutes, and baseline arginine levels were reached within 12 hours after discontinuation of infusion.
Three patients with refractory neoplasms (breast, melanoma, adenocarcinoma, of unknown primary) have been enrolled and completed 1-2 cycles of arginine butyrate as a dose of 500 mg/kg/day over 6-8 hours for 10 days.
Three patients (with breast cancer, bowel cancer or Hodgkins disease) have completed two cycles of arginine butyrate at a dose of 750 mg/kg/day for 10 days. […] Otherwise, there was no other objective measures of organ progressed after treatment was topped. […] There was a further resolution of the disease during the second cycle. Disease progression was noted one month after second cycle was completed. At 1000 mg/kg/day, 3 patients have been enrolled on study.
An inter-group dose-escalation study is being conducted in patients with refractory malignancies. There are 3 patients per group with the dose levels starting at 500 mg/kg/day, and increasing by 250 mg/kg/day per group, if toxicity permits. Doses are given by 8 hour IV infusion, daily, for 5 days times 2 weeks, with weekends off, for a total of 10 days of treatment per cycle.

Gastric Carcinoma (AGS) = assay: Differentiation of tumor cell line; assay type: cell-based, human
Protocol: The effects of arginine butyrate compounds on differentiation of several human tumor cell lines were evaluated by visual inspection and by histochemical and pathological staining:
Although HLA antigens are expressed on normal, fully differentiated cells, they are not expressed or are minimally expressed on most neoplastic cells. In this way neoplastic cells escape recognition by the cellular arm of the immune system and are able to survive.

[5] = test system: HIV p24 in co-cultures of human PBMC and Ci11; assay: HIV p24 production, radio-immuno assay; assay type: cell-based; details: 72 hours post-cultivation; FIG. 13
Text: The effect of arginine butyrate on HIV p24 production could be easily studied in co-cultures of human PBMC and Ci11, an HIV infected cell line. […] Despite these encouraging results with a more direct assay than those published previously, the potential risks to HIV+ patients of treatment with arginine butyrate have not been evaluated as these patients were excluded from the protocol (FIG. 13). HIV p24 levels assessed by radio-immuno assay.

[6] = European pharmacokinetic studies; 500 mls of a 5% solution; two normal volunteers; cited from earlier work
[7] = test system: SY5Y neuroblastoma cell line; assay: Induction of apoptosis / DNA fragmentation

arginine butyrate
Cell Number ([1]; 0.05 mM): 1 × 10^5 | Cell Number ([1]; 1.0 mM): <1 × 10 ^3 | EBV-TK level increase [2]: approximately 4 fold | EBV-TK levels [3]: not increased | patients with grade 1 nausea/vomiting ([4]; 500 mg/kg/day, three patients): Two of the three patients | patients with grade I nausea/vomiting ([4]; 750 mg/kg/day for 10 days, three patients): One of the three patients; also recorded: One, of the three patients | serum BUN ([4]; 750 mg/kg/day, one patient): transient elevation of serum BUN | time to resolution of BUN elevation and proteinuria after discontinuation ([4]; 750 mg/kg/day, one patient): ≤ 5 days | toxic side effects ([4]; adults, IV infusion of similar doses): no toxic side effects | grade 3 or 4 toxicities ([4]; listed as Arginine butyrate): no grade 3 and no grade 4 toxicities reported | grade 3 or 4 toxicities ([4]; listed as arginine butyrate): no grade 3 or 4 toxicities | organ specific toxicity ([4]; recorded by principal investigators): No organ specific toxicity was recorded | objective toxicities (hepatic, renal, cardiac, pulmonary, hematopoietic) ([4]; refractory neoplasms, 500 mg/kg/day over 6-8 hours for 10 days): no objective toxicities noted | untoward side effects ([4]; three cancer patients, emergency basis, up to 2,000 mg/kg/day, 10 days): no untoward side effects noted | side effect: anorexia ([4]; β-hemoglobinopathies, IV 500-2000 mg/kg/day): Transient anorexia developed in one patient | side effect: serum aminotransferase ([4]; β-hemoglobinopathies, IV 500-2000 mg/kg/day, 2-7 weeks): transient, slight rise in serum aminotransferase | time for rise in BUN to return to normal after discontinuation ([4]; β-hemoglobinopathies, continuous infusion over 2 weeks): ≤ 12 h | differentiation marker expression (Gastric Carcinoma (AGS)): began to express mucin | HIV p24 production [5]: significant decrease in p24 production | elimination period [6]: 15 min | apoptosis ([7]; FIG. 1c): induces apoptosis | DNA fragmentation ([7]; both 0.5 and 1.0 mM): significant DNA fragmentation was found
